In the assay the test system is BDF1 mice, L1210 leukemia sc, survival T/C. Briefly: NCI In Vivo Anticancer Drug Screen. Data for tumor model L1210 Leukemia (subcutaneous) in B6D2F1 (BDF1) mice. The note with it: higher = longer survival. The gist of the method: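 Tumors were transplanted into mice, the animals were treated with compound, survival or tumor size was then measured, and treated values were divided by vehicle-control values.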

Structures are written as SMILES. Several values for one entry are separate records, joined by “and”; a condition that tells them apart may be missing. Identical values can stand only once. Inconclusive results and toxic doses are left out.

Consider `N[C@@H](Cc1ccc(N(CCCl)CCCl)cc1)C(=O)O`, for which the T/C by setting is: (endpoint: median survival time, dose: 0.65 mg/kg/injection, schedule: Q01DX Z (sc), vehicle: water) 100 % of control; (endpoint: median survival time, dose: 1.09 mg/kg/injection, schedule: Q01DX Z (sc), vehicle: water) 100 % of control; (endpoint: median survival time, dose: 1.81 mg/kg/injection, schedule: Q01DX Z (sc), vehicle: water) 95 % of control; (endpoint: median survival time, dose: 3.02 mg/kg/injection, schedule: Q01DX Z (sc), vehicle: water) 100 % of control; (endpoint: median survival time, dose: 5.04 mg/kg/injection, schedule: Q01DX Z (sc), vehicle: water) 104 % of control; (endpoint: median survival time, dose: 8.4 mg/kg/injection, schedule: Q01DX Z (sc), vehicle: water) 100 % of control. Besides, the T/C is 114 % of control (endpoint: median survival time, dose: 14.0 mg/kg/injection, schedule: Q01DX Z (sc), vehicle: saline); 109 % of control (endpoint: median survival time, dose: 14.0 mg/kg/injection, schedule: Q01DX Z (sc), vehicle: water); 123 % of control (endpoint: median survival time, dose: 23.0 mg/kg/injection, schedule: Q01DX Z (sc), vehicle: saline); 109 % of control (endpoint: median survival time, dose: 23.3 mg/kg/injection, schedule: Q01DX Z (sc), vehicle: water); 118 % of control (endpoint: median survival time, dose: 38.9 mg/kg/injection, schedule: Q01DX Z (sc), vehicle: water); 104 % of control (endpoint: median survival time, dose: 39.0 mg/kg/injection, schedule: Q01DX Z (sc), vehicle: saline). For the same molecule, the T/C (endpoint: median survival time, dose: 65.0 mg/kg/injection, schedule: Q01DX Z (sc), vehicle: saline) was 104 % of control.

As for `COc1cc(NS(C)(=O)=O)ccc1Nc1c2ccccc2nc2ccccc12`, the T/C by setting is: (endpoint: mean survival time, dose: 0.75 mg/kg/injection, schedule: Q01DX009 (ip), vehicle: saline) 97 % of control; (endpoint: mean survival time, dose: 1.25 mg/kg/injection, schedule: Q01DX009 (ip), vehicle: saline) 100 % of control; (endpoint: mean survival time, dose: 1.5 mg/kg/injection, schedule: Q01DX009 (ip), vehicle: saline) 99 % of control; (endpoint: mean survival time, dose: 2.5 mg/kg/injection, schedule: Q01DX009 (ip), vehicle: saline) 104 % of control; (endpoint: mean survival time, dose: 3.0 mg/kg/injection, schedule: Q01DX009 (ip), vehicle: saline) 110 % of control; (endpoint: mean survival time, dose: 5.0 mg/kg/injection, schedule: Q01DX009 (ip), vehicle: saline) 103 % of control and 112 % of control. Further, the T/C runs as follows: (endpoint: mean survival time, dose: 6.0 mg/kg/injection, schedule: Q01DX009 (ip), vehicle: saline) 110 % of control; (endpoint: mean survival time, dose: 10.0 mg/kg/injection, schedule: Q01DX009 (ip), vehicle: saline) 100 % of control; (endpoint: median survival time, dose: 0.5 mg/kg/injection, schedule: Q01DX009 (ip), vehicle: other) 103 % of control; (endpoint: median survival time, dose: 1.0 mg/kg/injection, schedule: Q01DX009 (ip), vehicle: other) 102 % of control; (endpoint: median survival time, dose: 2.0 mg/kg/injection, schedule: Q01DX009 (ip), vehicle: other) 103 % of control; (endpoint: median survival time, dose: 4.0 mg/kg/injection, schedule: Q01DX009 (ip), vehicle: other) 118 % of control.

In the case of `NC(Cc1c[nH]c2ccc(N(CCCl)CCCl)cc12)C(=O)O` (centres undefined), the T/C is 105 % of control (endpoint: median survival time, dose: 0.65 mg/kg/injection, schedule: Q01DX Z (sc), vehicle: methylcellulose (MC)); 111 % of control (endpoint: median survival time, dose: 1.08 mg/kg/injection, schedule: Q01DX Z (sc), vehicle: methylcellulose (MC)); 123 % of control (endpoint: median survival time, dose: 1.8 mg/kg/injection, schedule: Q01DX Z (sc), vehicle: methylcellulose (MC)); 117 % of control (endpoint: median survival time, dose: 8.4 mg/kg/injection, schedule: Q01DX Z (sc), vehicle: methylcellulose (MC)).

`CN(C)/N=N/c1nc[nH]c1C(N)=O`: the T/C (endpoint: mean survival time, dose: 39.0 mg/kg/injection, schedule: Q01DX009 (sc), vehicle: steriod suspending solution) was 117 % of control; the T/C (endpoint: mean survival time, dose: 65.0 mg/kg/injection, schedule: Q01DX009 (sc), vehicle: steriod suspending solution) was 115 % of control; the T/C (endpoint: mean survival time, dose: 300.0 mg/kg/injection, schedule: Q01DX009 (sc), vehicle: steriod suspending solution) is 158 % of control; the T/C (endpoint: median survival time, dose: 39.0 mg/kg/injection, schedule: Q01DX009 (sc), vehicle: steriod suspending solution) is 110 % of control and 116 % of control; the T/C (endpoint: median survival time, dose: 39.0 mg/kg/injection, schedule: Q01DX013 (sc), vehicle: steriod suspending solution) was 110 % of control and 111 % of control; the T/C (endpoint: median survival time, dose: 39.0 mg/kg/injection, schedule: Q01DX Z (sc), vehicle: steriod suspending solution) was 110 % of control and 116 % of control. Moreover, the T/C reads like this: (endpoint: median survival time, dose: 65.0 mg/kg/injection, schedule: Q01DX009 (sc), vehicle: other) 111 % of control; (endpoint: median survival time, dose: 65.0 mg/kg/injection, schedule: Q01DX009 (sc), vehicle: steriod suspending solution) 110 % of control and 118 % of control and 121 % of control; (endpoint: median survival time, dose: 65.0 mg/kg/injection, schedule: Q01DX013 (sc), vehicle: other) 113 % of control; (endpoint: median survival time, dose: 65.0 mg/kg/injection, schedule: Q01DX013 (sc), vehicle: steriod suspending solution) 111 % of control and 113 % of control and 115 % of control; (endpoint: median survival time, dose: 65.0 mg/kg/injection, schedule: Q01DX017 (oral), vehicle: steriod suspending solution) 124 % of control; (endpoint: median survival time, dose: 65.0 mg/kg/injection, schedule: Q01DX Z (sc), vehicle: steriod suspending solution) 121 % of control and 122 % of control. Also, the T/C by setting is: (endpoint: median survival time, dose: 65.0 mg/kg/injection, schedule: Q ##X015 (oral), vehicle: steriod suspending solution) 113 % of control; (endpoint: median survival time, dose: 65.0 mg/kg/injection, schedule: Q## X015 (oral), vehicle: steriod suspending solution) 116 % of control; (endpoint: median survival time, dose: 108.0 mg/kg/injection, schedule: Q01DX009 (sc), vehicle: other) 108 % of control; (endpoint: median survival time, dose: 108.0 mg/kg/injection, schedule: Q01DX013 (sc), vehicle: steriod suspending solution) 115 % of control and 117 % of control and 122 % of control; (endpoint: median survival time, dose: 108.0 mg/kg/injection, schedule: Q01DX Z (sc), vehicle: steriod suspending solution) 115 % of control; (endpoint: median survival time, dose: 108.0 mg/kg/injection, schedule: Q ##X015 (oral), vehicle: steriod suspending solution) 117 % of control. Also, the T/C is, setting by setting: (endpoint: median survival time, dose: 108.0 mg/kg/injection, schedule: Q## X015 (oral), vehicle: steriod suspending solution) 116 % of control; (endpoint: median survival time, dose: 180.0 mg/kg/injection, schedule: Q01DX009 (sc), vehicle: other) 115 % of control; (endpoint: median survival time, dose: 300.0 mg/kg/injection, schedule: Q01DX Z (sc), vehicle: steriod suspending solution) 166 % of control; (endpoint: median survival time, dose: 500.0 mg/kg/injection, schedule: Q01DX013 (sc), vehicle: other) 166 % of control; (endpoint: median survival time, dose: 500.0 mg/kg/injection, schedule: Q01DX013 (sc), vehicle: steriod suspending solution) 166 % of control; (endpoint: median survival time, dose: 500.0 mg/kg/injection, schedule: Q01DX017 (oral), vehicle: steriod suspending solution) 150 % of control. Also, the T/C was 150 % of control (endpoint: median survival time, dose: 500.0 mg/kg/injection, schedule: Q## X015 (oral), vehicle: steriod suspending solution); 158 % of control (endpoint: median survival time, dose: 833.0 mg/kg/injection, schedule: Q ##X015 (oral), vehicle: steriod suspending solution); 166 % of control (endpoint: median survival time, dose: 833.0 mg/kg/injection, schedule: Q## X015 (oral), vehicle: steriod suspending solution).

Consider `Cn1c(N)nc2nc[nH]c2c1=S`, for which the T/C was 100 % of control (endpoint: median survival time, dose: 65.0 mg/kg/injection, schedule: Q01DX Z (sc), vehicle: methylcellulose (MC)); 100 % of control (endpoint: median survival time, dose: 108.0 mg/kg/injection, schedule: Q01DX Z (sc), vehicle: methylcellulose (MC)); 100 % of control and 105 % of control (endpoint: median survival time, dose: 180.0 mg/kg/injection, schedule: Q01DX Z (sc), vehicle: methylcellulose (MC)); 100 % of control (endpoint: median survival time, dose: 300.0 mg/kg/injection, schedule: Q01DX Z (sc), vehicle: methylcellulose (MC)); 100 % of control and 105 % of control (endpoint: median survival time, dose: 500.0 mg/kg/injection, schedule: Q01DX Z (sc), vehicle: methylcellulose (MC)); 110 % of control (endpoint: median survival time, dose: 833.0 mg/kg/injection, schedule: Q01DX Z (sc), vehicle: methylcellulose (MC)).

Consider `CCCCCCC(=O)O[C@H]1CC[C@H]2[C@@H]3CCC4=CC(=O)CC[C@]4(C)[C@H]3CC[C@]12C`, for which the T/C was 101 % of control (endpoint: median survival time, dose: 5.0 mg/kg/injection, schedule: Q01DX009 (ip), vehicle: other); 102 % of control and 105 % of control (endpoint: median survival time, dose: 5.0 mg/kg/injection, schedule: Q01DX009 (sc), vehicle: other); 102 % of control (endpoint: median survival time, dose: 10.0 mg/kg/injection, schedule: Q01DX009 (ip), vehicle: other); 100 % of control and 104 % of control (endpoint: median survival time, dose: 10.0 mg/kg/injection, schedule: Q01DX009 (sc), vehicle: other); 98 % of control (endpoint: median survival time, dose: 20.0 mg/kg/injection, schedule: Q01DX009 (ip), vehicle: other); 104 % of control and 105 % of control (endpoint: median survival time, dose: 20.0 mg/kg/injection, schedule: Q01DX009 (sc), vehicle: other). The T/C runs as follows: (endpoint: median survival time, dose: 40.0 mg/kg/injection, schedule: Q01DX009 (ip), vehicle: other) 104 % of control; (endpoint: median survival time, dose: 40.0 mg/kg/injection, schedule: Q01DX009 (sc), vehicle: other) 101 % of control and 103 % of control; (endpoint: median survival time, dose: 80.0 mg/kg/injection, schedule: Q01DX009 (ip), vehicle: other) 97 % of control and 98 % of control; (endpoint: median survival time, dose: 160.0 mg/kg/injection, schedule: Q01DX009 (ip), vehicle: other) 94 % of control and 98 % of control; (endpoint: median survival time, dose: 320.0 mg/kg/injection, schedule: Q01DX009 (sc), vehicle: other) 88 % of control and 104 % of control; (endpoint: median survival time, dose: 640.0 mg/kg/injection, schedule: Q01DX009 (sc), vehicle: other) 95 % of control and 100 % of control.

Values taken from PubChem BioAssay AID250 (DTP/NCI, 2004).
